Each structure is given as a SMILES string. Converted amounts (≈) assume the structure as drawn. Like-named read-outs stand apart in the source and are kept apart here.

A word on the IC50: it is the concentration at which inhibition is half-maximal.

Data set [1] concerns Bovine brain microtubule protein (MTP). The data set is described as follows: Tubulin polymerization inhibition assay (turbidimetry). It counts as biochemical. The following applies: 1.5 mg/mL MTP; IC50 calculated only if more than 50% inhibition at 20 µM; read-out: TPI IC50. On the procedure:
Bovine brain microtubule protein (MTP) was isolated as previously described. Briefly, it was purified according to the modified Shelanski method by two cycles of temperature-dependent assembly/disassembly.
Tubulin polymerization was monitored using a Helios α spectrophotometer by measuring the increase in turbidity at 450 nm, caused by a shift from 4 °C to 37 °C, which allows the in vitro MTP self-disassembly and assembly respectively. […] Firstly, ligands at 20 µM concentration, were incubated with 1.5 mg/mL MTP at 20 °C for 30 min and subsequently cooled on ice for 10 min. Then, the experiment starts at 4 °C to establish the initial baseline. The assembly process was initiated by shifting of the temperature to 37 °C and the turbidity produced can be measured by an absorbance increase. After reaching a stable plateau, the temperature was switched back to 4 °C to return to the initial absorption values. The difference in amplitude between the stable plateau and the initial baseline of the curves was taken as the degree of tubulin polymerization for each experiment. […] All the measurements were carried out in at least two independent experiments using MTP from different isolation.

The nature of data set [2]: Aqueous solubility determination (shake flask, UV). The format is physicochemical. To be noted: for solubility at 48 h: thermodynamic from solid. The method, then:
One of the expected effects of introducing nitrogen substitutions on combretastatin and isocombretastatin analogues, is an increase in aqueous solubility. Solubility was spectrophotometrically determined in phosphate buffer at pH 7. UV absorbance of soluble compounds was measured after shaking and microfiltration. […] In addition, aqueous solubilities of the corresponding ammonium salts are over 1 mg/mL.
This great improvement is probably due to the symmetry reduction, combined with an increased polarity for 2g.
Compounds were stirred in a solution of phosphate buffer at pH 7.0 (1–2 mg of compound in 300 µL of buffer) during 48 h. After that, the samples were filtered over a […] filter to discard the insoluble residues. In order to determine the maximum wavelength of absorbance for each compound, a scan between 270 and 400 nm was performed. Once the wavelength was selected, a calibration line was performed and the concentration of the stirred and filtered samples was measured.

Data set [3] deals with HeLa cervix epithelioid carcinoma. The data set is described as follows: MTT cell antiproliferative assay, HeLa. The format is cell-based. To be noted: Homo sapiens, 72 h. On the procedure: (§1) The in vitro antiproliferative activity of the synthesized compounds was evaluated by a colorimetric reaction, using the MTT reagent. They were tested against three different human tumor cell lines: HeLa cervix epithelioid carcinoma, HT-29 colon adenocarcinoma, and MCF-7 breast adenocarcinoma. […] Moving the alkylamino substituent from a para to a meta position with respect to the bridge results in potency reduction, except for the phenstatin analogue 1f. However, the introduction of a nitrogen atom to form 2-dimethylaminopyridine derivatives entails a loss of activity, both for phenstatin analogues (1b, 2b), while for isocombretastatins, it only involves a 2–3 times potency decrease (3b). For combretastatins, it implies an improvement in the cytotoxicity values down to tenths of nanomolar (8b). […] On the other hand, the best 2-dimethylaminopyridine was combretastatin 8b. All ammonium salts derivatives were not cytotoxic at micromolar concentrations.
(§2) HeLa (human cervical carcinoma) and MCF-7 (human breast carcinoma) cell lines were cultured in Dulbecco’s Modified Eagles Medium (DMEM) supplemented with 2 mM L-glutamine (Lonza-Cambrex, Karlskoga, Sweden), 10% (v/v) heat inactivated fetal bovine serum (HIFBS) (Lonza-Cambrex) and 100 μg/mL streptomycin-100 IU/mL penicillin (Lonza-Cambrex) at 37 °C in humidified 95% air and 5% CO2. HT-29 (human colon carcinoma) cells were cultured at 37 °C in complete RPMI 1640 medium containing 2 mM L-glutamine, 10% (v/v) HIFBS and 100 μg/mL streptomycin-100 IU/mL penicillin in humidified 95% air and 5% CO2 atmosphere.
(§3) The effect of the different compounds on the proliferation of human cell lines was determined by using the MTT (3-[4,5-dimethylthiazol-2-yl]-2,5-diphenyltetrazolium bromide) reagent (MTT Thiazolyl Blue Tetrazolium Bromide, Sigma-Aldrich, St. Louis, MO, USA) dissolved in PBS 5 mg/mL. Cell viability was evaluated seeding 100 µL of cells in exponential growth phase with appropriate cell line concentration (1.5 × 10^4 HeLa and MCF-7 cells/mL and 3 × 10^4 HT-29 cells/mL) in complete medium in 96-well plates at 37 °C and 5% CO2. After 24 h incubation to allow cells to attach to the plates the ligands were added at different concentrations from 10^−5 to 10^−9 M. The effect on the proliferation was evaluated 72 h post-treatment by adding the MTT reagent (10 µL/well) to a final concentration of 0.5 mg/mL and the plate was further incubated for another 3 h. After this period, the supernatant was removed, the MTT violet crystals formed on the bottom of each well were dissolved in DMSO (100 µL/well) and subsequently, the absorbance of the color complex was read at 570 nm using a multi-well plate reader. Compounds were dissolved in dimethyl sulfoxide (DMSO) and the final solvent concentrations never exceeded 0.5% (v/v). The control wells included treated cells with 0.5% (v/v) DMSO and the positive control. Measurements were performed in triplicate, and each experiment was repeated three times. […] Nonlinear curves fitting the experimental data were carried out for each compound.

For data set [4], the system named is HT-29 colon adenocarcinoma. Put plainly: MTT cell antiproliferative assay, HT-29 (without or with verapamil). The format is cell-based, human. The following applies: for IC50: Homo sapiens, HT-29, MTT, 72 h. The method, then:
as §1
As observed in Table 1, there are no significant changes in the IC50 values for most compounds, except for combretastatins 8a and 8i.
Acquired resistance to antitumor drugs is one of the more important problems of chemotherapy, also affecting tubulin-targeting drugs. In order to ascertain the impact of multidrug resistance phenotypes on the action of the compounds, we have measured the cell proliferation inhibitory activity of HT-29 cells in the presence of verapamil, a known P-glycoprotein 1/multidrug resistance protein 1 (MDR1) inhibitor at a concentration of 10 µM, not affecting cell proliferation. […] Except for the combretastatin analogues 8a and 8i, the affected drugs are all pyridine drugs.
as §2, §3
Background: Tetrazolium assays rely on reduction of a dye to a coloured formazan, in cell work by metabolically active cells.

The subject of data set [5] is MCF-7 breast adenocarcinoma. Put plainly: MTT cell antiproliferative assay, MCF-7. The format is cell-based. The following applies: Homo sapiens, MCF7, 72 h. On the procedure:
as §1, §2, §3

Data set [6] relates to HeLa, HT-29 and MCF-7 human tumor cell lines. The data set is described as follows: Antiproliferative activity over the three human tumor cell lines (MTT). The format is cell-based. The following applies: Homo sapiens, range over the cell lines, Table S1; read-out: Cytotoxicity range (range of antiproliferative IC50 values). The method, then: as §1
The antiproliferative activity of the compounds against three human tumor cell lines of different origins (i.e., HeLa cervix epithelioid carcinoma, HT-29 colon adenocarcinoma and MCF-7 breast adenocarcinoma) was evaluated by the MTT method. […] This high success rate is the result of a combination of favorable scaffolds and substituents, and it is similar to those of previous reports on related series. […] We have previously observed the same trend for related compounds acting at the colchicine site of tubulin [10, 23]. For this pyridine series, we observed a different potency trend when we compare the 4-amino-3-pyridine and the 3-amino-4-pyridine derivatives. […] This different behavior is probably a reflection of their different shape, combined with the different geometries imposed by different bridges. We have previously shown that the potency ordering isocombretastatins similar to oximes higher than benzophenones could be explained by the higher conjugation of the ketones with the aromatic rings, which imposes a more planar disposition than those required for high affinity colchicine site binding. For the 3-amino-4-pyridine series, more planar structures are required in order to avoid the bumping of the amino substituents with tubulin out the plane of the aromatic ring, an effect which we have previously shown to impact the potency of 3-substituted indolecombretastatins and dimethylaminophenyl phenstatins. This different geometrical disposition of the amino substituents, and the different adaptability of their corresponding pockets in the two series, can also account for the preference of bulkier substituents at position 3, such as the pyrrolidine rather than the smaller dimethylamino. […] The opposite is observed for the 4-dimethylaminophenyl phenstatins 1a and 1b. […] The remarkable levels of solubility achieved for the quaternary ammonium salts came unfortunately at the expenses of biological activity.
The effect of the different compounds on the proliferation of human cell lines was determined by using the MTT (3-[4,5-dimethylthiazol-2-yl]-2,5-diphenyltetrazolium bromide) reagent (MTT Thiazolyl Blue Tetrazolium Bromide, Sigma-Aldrich, St. Louis, MO, USA) dissolved in PBS 5 mg/mL. Cell viability was evaluated seeding 100 µL of cells in exponential growth phase with appropriate cell line concentration (1.5 × 10^4 HeLa and MCF-7 cells/mL and 3 × 10^4 HT-29 cells/mL) in complete medium in 96-well plates at 37 °C and 5% CO2. After 24 h incubation to allow cells to attach to the plates the ligands were added at different concentrations from 10^−5 to 10^−9 M. The effect on the proliferation was evaluated 72 h post-treatment by adding the MTT reagent (10 µL/well) to a final concentration of 0.5 mg/mL and the plate was further incubated for another 3 h. […]

The mark [7] stands for this setting: aqueous buffer, phosphate buffer pH 7.0, 48 h stirring, filtered, UV, read-out: Solub.
The mark [8] stands for this setting: phosphate buffer, pH 7, aqueous buffer, phosphate buffer pH 7.0, 48 h stirring, filtered, UV, read-out: Solub.

In the case of `COc1cc(C(=O)c2ccc(N(C)C)cc2)cc(OC)c1OC` [Compound 1a, (4-(Dimethylamino)phenyl)(3,4,5-trimethoxyphenyl)methanone], the results for the IC50 in data set [1], in data set [3] and in data set [4] were more than 20000 nM, 90 nM and 400 nM, respectively. This molecule also came in with a Solub. in data set [2] (phosphate buffer pH 7.0, 48 h stirring, filtered, UV) of 48 µg/mL.

As for `COc1cc(C(=O)c2ccc(N3CCCC3)nc2)cc(OC)c1OC` [Compound 1c, (6-(Pyrrolidin-1-yl)pyridin-3-yl)(3,4,5-trimethoxyphenyl)methanone], the IC50 in data set [5] was 2330 nM; in data set [1], more than 20000 nM; in data set [3] it was 1600 nM; in data set [6], more than 1000 nM; in data set [4], 5170 nM.

With `COc1ccc(C(=O)c2ccc(N(C)C)cc2)c(OC)c1OC` [Compound 1d, (4-(Dimethylamino)phenyl)(2,3,4-trimethoxyphenyl)methanone], the IC50 was 407 nM in data set [5]; more than 20000 nM in data set [1]; 413 nM in data set [3]; 407 to 650 nM in data set [6]; 500 nM in data set [4].

For the molecule `COc1cc(C(=NO)c2ccc(N(C)C)cc2)cc(OC)c1OC` [Compound 2a, (4-(Dimethylamino)phenyl)(3,4,5-trimethoxyphenyl)methanone oxime], the IC50 is more than 20000 nM in data set [1], 800 nM in data set [3] and 1000 nM in data set [4]. Moreover, in data set [2] (setting [7]), the solubility at 48 h is 74 µg/mL (≈ 224 µM).

With `COc1ccc(C(=NO)c2ccc(N(C)C)cc2)c(OC)c1OC` [Compound 2d, (4-(Dimethylamino)phenyl)(2,3,4-trimethoxyphenyl)methanone oxime], the IC50 in data set [5] was 277 nM; in data set [1], more than 20000 nM; in data set [3] it was 373 nM; in data set [4] it was 320 nM.

In the case of `COc1cc(C(=NO)c2ccnc(N(C)C)c2)cc(OC)c1OC` [Compound 2g, (2-(Dimethylamino)pyridin-4-yl)(3,4,5-trimethoxyphenyl)methanone oxime], the IC50 in data set [5] was 407 nM; in data set [1], more than 20000 nM; in data set [3] it was 533 nM; in data set [4], 3370 nM. The solubility at 48 h in data set [2] (setting [8]) is 583 µg/mL (≈ 1760 µM); in data set [2] (phosphate buffer, pH 7, aqueous buffer, phosphate buffer pH 7, stated in text, read-out: aqueous solubility) it was approximately 600 µg/mL (≈ 1810 µM).

For `C=C(c1ccc(N(C)C)cc1)c1cc(OC)c(OC)c(OC)c1` [Compound 3a, N,N-Dimethyl-4-(1-(3,4,5-trimethoxyphenyl)vinyl)aniline], the 50% inhibitory concentration (IC50) in data set [1] is 1900 nM; in data set [3], 40 nM; in data set [4], 70 nM. Moreover, the solubility at 48 h in data set [2] (setting [7]) amounted to 30 µg/mL (≈ 95.7 µM).

`C=C(c1ccc(N2CCCC2)nc1)c1cc(OC)c(OC)c(OC)c1` [Compound 3c, 2-(Pyrrolidin-1-yl)-5-(1-(3,4,5-trimethoxyphenyl)vinyl)pyridine]: the IC50 in data set [1] was more than 20000 nM; in data set [3] it was 523 nM; in data set [6], 140 to 523 nM; in data set [4], 383 nM.

Take `C=C(c1ccc(N(C)C)cc1)c1ccc(OC)c(OC)c1OC` [Compound 3d, N,N-dimethyl-4-(1-(2,3,4-trimethoxyphenyl)vinyl)aniline]: the half-inhibitory concentration (IC50) in data set [5] was 2000 nM; in data set [1] it was more than 20000 nM; in data set [3], 1000 nM; in data set [6] it was more than 1000 nM; in data set [4], 4000 nM.

Regarding `C=C(c1ccnc(N(C)C)c1)c1cc(OC)c(OC)c(OC)c1` [Compound 3g, N,N-Dimethyl-4-(1-(3,4,5-trimethoxyphenyl)vinyl)pyridin-2-amine], the IC50 in data set [5] is 367 nM; in data set [1], more than 20000 nM; in data set [3], 403 nM; in data set [4], 397 nM. In addition, in data set [2] (setting [8]), the solubility at 48 h turned out to be 136 µg/mL (≈ 433 µM).

With `COc1cc(C=Cc2ccc(N3CCCC3)cc2)cc(OC)c1OC` [Compound 8i, 1-(4-(3,4,5-Trimethoxystyryl)phenyl)pyrrolidine], the half-inhibitory concentration (IC50) in data set [5] worked out at 140 nM; in data set [3], 243 nM; in data set [4], 430 nM. Moreover, the “improvement of HT-29 IC50 after verapamil treatment” value in data set [4] (10 µM verapamil) is reported as more than 2 fold.

The values above are taken from article PMC6930638, “The Masked Polar Group Incorporation (MPGI) Strategy in Drug Design: Effects of Nitrogen Substitutions on Combretastatin and Isocombretastatin Tubulin Inhibitors” (Molecules, 2019).
